Values joined by “and” are separate entries in the source; they are usually repeats but may differ in a detail not shown here. Identical values can stand only once.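 Where inhibition never reached the appropriate level, the endpoint shown equals the highest concentration tested. Otherwise, values were interpolated linearly from a five-concentration, 48-hour dose response in 96-well plates. GI50 is the concentration that inhibits growth by half. Definition used: TGI = concentration required for complete inhibition of growth.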
Columns and labels:
Experiment in all cases: NCI-60 cell line screen, 48 h
[1] = tested on: SK-MEL-28 melanoma
[2] = tested on: 786-0 renal
[3] = tested on: SW-620 colon
[4] = tested on: MDA-MB-231 breast
[5] = tested on: SF-539 CNS
[6] = tested on: OVCAR-4 ovarian
[7] = tested on: CAKI-1 renal
[8] = tested on: BT-549 breast

| Compound | TGI [1] | GI50 [2] | TGI [2] | TGI [3] | TGI [4] | TGI [5] | GI50 [6] | TGI [6] | GI50 [1] | GI50 [3] | GI50 [4] | GI50 [5] | GI50 [7] | TGI [7] | GI50 [8] | TGI [8] |
| --- | --- | --- | --- | --- | --- | --- | --- | --- | --- | --- | --- | --- | --- | --- | --- | --- |
| CS(=O)(=O)c1ccc(C(=O)Nc2ccc(Cl)c(-c3ccccn3)c2)c(Cl)c1 | > 100 µM and 16.3 µM | 63.2 µM | > 100 µM | > 100 µM and 13.2 µM | > 96.2 µM and 15.7 µM | > 100 µM and 13.7 µM | 29.7 µM | > 100 µM | – | – | – | – | – | – | – | – |
| N=C(N)c1ccc(N2CCCN(c3ccc(C(=N)N)cc3)CC2)cc1 | > 100 µM | > 100 µM | > 100 µM | > 100 µM | > 100 µM | > 100 µM | > 100 µM | > 100 µM | > 100 µM | > 100 µM | > 100 µM | 41.5 µM | 99.7 µM | > 100 µM | – | – |
| CCCCCCCCCCCCCCCCCC(=O)OCC(COC1OC(COP(=O)(O)O)C(O)C(O)C1O)OC(=O)CCCCCCCCCCCCCCCCC (stereo not given) | 18 µM | – | 14.9 µM | 17.9 µM | 9.24 µM | 18.1 µM | – | 14.5 µM | – | – | – | – | – | 16.9 µM | – | – |
| CNC(=O)OCc1c(COC(=O)NC)c(C)n(-c2ccc(Br)cc2)c1C | 35.2 µM | – | 27.8 µM | 27.3 µM | 30.5 µM | 30.3 µM | – | – | – | – | – | – | – | > 100 µM | – | – |
| C=CC(=O)N(C)[C@H]1C[C@H]2OC(C)(C1OC)n1c3ccccc3c3c4c(c5c6ccccc6n2c5c31)C(=O)NC4 (stereo not given in full) | 2.08 µM | 0.0872 µM | 0.69 µM | 0.792 µM | 1.04 µM | 0.379 µM | 0.0939 µM | > 50 µM | 0.369 µM | 0.0514 µM | 0.0783 µM | 0.083 µM | – | – | 0.0963 µM | 0.553 µM |
| COc1ccc(C2CC(c3cc(OC)c(OC)c(OC)c3)=NN2C(C)=O)cc1OCC(=O)Nc1nc2ccc(C(F)(F)F)cc2s1 (stereo not given) | – | 3.58 µM | 12.2 µM | > 100 µM | 8.96 µM | 3.42 µM | 2.9 µM | > 100 µM | – | > 100 µM | 3.11 µM | 1.75 µM | – | – | 3.55 µM | 82 µM |
| Cc1ccc(-c2cc(-c3ccc(C)cc3)nc(NCCNc3ccnc4cc(Cl)ccc34)n2)cc1 | 3.38 µM | 1.79 µM | 3.67 µM | 3.49 µM | 3.67 µM | 3.6 µM | 1.63 µM | 3.24 µM | 1.76 µM | 1.71 µM | 1.88 µM | 1.91 µM | 1.43 µM | 2.82 µM | – | – |
| CCN=C1C=CC(=C(c2ccc(N)cc2)c2ccc(N(CC)CC)c(C)c2)C=C1 | 1.96 µM | 0.344 µM | 1.84 µM | 1.62 µM | 0.654 µM | 1.36 µM | 0.298 µM | 1.66 µM | 0.394 µM | 0.345 µM | 0.219 µM | 0.34 µM | 1.92 µM | 8.15 µM | – | – |
| c1ccc2c(c1)c(NCCCCN1CCCCC1)cc1c3ccccc3c(NCCCCN3CCCCC3)cc21 | – | 12 µM | 29.1 µM | > 100 µM | 35.7 µM | 37.5 µM | – | – | – | 10.6 µM | 17.2 µM | 16.5 µM | 21 µM | 46.1 µM | 20.7 µM | 45.2 µM |
| CN(C)c1ccc2c(c1)Sc1cc(N(C)C)ccc1N2C(=O)c1ccccc1 | > 100 µM | 32.8 µM | > 100 µM | > 100 µM | > 100 µM | > 100 µM | 44.6 µM | > 100 µM | 43.1 µM | 71.6 µM | 64.2 µM | 38.2 µM | 14.7 µM | > 100 µM | – | – |
| O=C(/C(=C/c1ccc([N+](=O)[O-])cc1)c1ccccc1)c1ccccc1 | 5.63 µM | 3.56 µM | > 100 µM | – | > 100 µM | – | 3.57 µM | > 100 µM | 2.27 µM | – | 3.16 µM | – | – | – | 2.57 µM | 7.12 µM |
| COc1ccc(C(OCC2OC(n3ccc(NC(=O)c4ccccc4)nc3=O)C(O)C2O)(c2ccccc2)c2ccccc2)cc1 (stereo not given) | 7.95 µM | – | 3.69 µM | 5.8 µM | 4.05 µM | 3.94 µM | – | 6.04 µM | – | – | – | – | – | 5.79 µM | – | – |
| CCN(C(=O)N1CCN(c2cc3c(cc2F)c(=O)c(C(=O)O)cn3C2CC2)CC1)c1nc(-c2ccc(C)cc2)cs1 | > 100 µM | 0.954 µM | 10.8 µM | > 100 µM | – | 2.65 µM | – | – | 0.687 µM | 0.653 µM | – | 0.356 µM | 1.4 µM | > 100 µM | 0.336 µM | 1.56 µM |
| Clc1cc(Cl)c(OCC#CI)cc1Cl | 5.14 µM | 1.69 µM | 3.39 µM | 3.88 µM | 28 µM | 12.8 µM | – | – | 2.12 µM | 1.76 µM | 13.5 µM | 2.94 µM | 1.09 µM | 2.69 µM | 7.21 µM | 19.8 µM |
| O=C(O)C/C=C/CC(=O)O | > 100 µM | – | > 100 µM | > 100 µM | > 100 µM | – | – | > 100 µM | – | – | – | – | – | > 100 µM | – | > 100 µM |
